Assays:
B. subtilis = test: Minimum inhibitory concentration (MIC) assay; type: cell-based, Bacillus subtilis; settings: 96-well plate, 37° C., 48 h; ATCC 6633
Procedure: (§1) • 1. Culture of bacterial strains. After the four bacterial strains were activated on a nutrient agar plate, a single colony was picked, inoculated to TSB medium (10 g/L peptone, 3 g/L beef extract powder, and 5 g/L sodium chloride), incubated at 37° C. for 6 h to the mid-logarithmic stage, and then centrifuged at 8000 rpm for 5 min to collect the bacterial cells. The collected bacterial cells were suspended in fresh TSB medium at a bacterial suspension concentration of approximately 10^7 cells/mL. • 2. Antibiotics. […] Antibiotics were purchased from Shanghai Yuanye Biotechnology Co., Ltd. An appropriate amount of antibiotics was weighed and dissolved in DSMO to prepare a stock solution of a cell division inhibitor, which was stored in the dark at −20° C. • 3. Minimum inhibitory concentration (MIC) assay. The above four bacterial suspensions were plated in a 96-well plate, to which antibiotics were added at final concentrations of […], and then incubated at 37° C. for 48 h. Bacterial growth was analyzed using a microplate reader, and the smallest concentration of antibiotics that could inhibit the growth of bacteria was defined as the minimum inhibitory concentration. • 4. Evaluation of inhibitory effect on bacterial division. […] After centrifugation at 8000 rpm, the bacterial cells were collected and resuspended in the PBS buffer, and the changes in the number of bacteria in the sample were analyzed using the forward scatter signals on the flow cytometer. • 5. Detection of bacterial viability. […] SYTO9 labeled all bacteria in green and PI labeled dead bacteria in red. The above labeling system was left at room temperature for 30 min in the dark, washed and centrifuged with PBS twice, and the percentages of viable and dead bacteria were analyzed using a flow cytometer. Measurement and analysis were performed using an Apogee A50 flow cytometer. At an excitation wavelength of 488 nm, a flow rate of 3-25 μL/min and a detection time of 10-100 s, the total number of bacteria was analyzed in the green fluorescence channel, and the number of dead bacteria was analyzed in the red fluorescence channel.

E. coli [1] = test: Minimum inhibitory concentration (MIC) assay; type: cell-based, Escherichia coli; settings: 96-well plate, 37° C., 48 h; ATCC 10798
Procedure: as §1

S. aureus = test: Minimum inhibitory concentration (MIC) assay; type: cell-based, Staphylococcus aureus; settings: 96-well plate, 37° C., 48 h; ATCC 29213
Procedure: as §1

L. lactis [2] = test: Minimum inhibitory concentration (MIC) assay; type: cell-based, Lactococcus lactis; settings: 96-well plate, 37° C., 48 h; ATCC 19257
Procedure: as §1

[3] = tested on: four species of bacteria (B. subtilis, E. coli, S. aureus, L. lactis); test: Evaluation of inhibitory effect on bacterial division (flow cytometry); type: cell-based; settings: 1 μg/mL, 2 h of treatment, compared to blank control; FIG. 7
Procedure: (§2) • 1. Culture of bacterial strains. After the four bacterial strains were activated on a nutrient agar plate, a single colony was picked, inoculated to TSB medium (10 g/L peptone, 3 g/L beef extract powder, and 5 g/L sodium chloride), incubated at 37° C. for 6 h to the mid-logarithmic stage, and then centrifuged at 8000 rpm for 5 min to collect the bacterial cells. The collected bacterial cells were suspended in fresh TSB medium at a bacterial suspension concentration of approximately 10^7 cells/mL. • 2. Antibiotics. […] Bacterial growth was analyzed using a microplate reader, and the smallest concentration of antibiotics that could inhibit the growth of bacteria was defined as the minimum inhibitory concentration. • 4. […] After centrifugation at 8000 rpm, the bacterial cells were collected and resuspended in the PBS buffer, and the changes in the number of bacteria in the sample were analyzed using the forward scatter signals on the flow cytometer. • 5. […] The above labeling system was left at room temperature for 30 min in the dark, washed and centrifuged with PBS twice, and the percentages of viable and dead bacteria were analyzed using a flow cytometer. […]

Staphylococcus aureus [4] = settings: 2 h
Procedure: as §2

[5] = tested on: B. subtilis, E. coli, S. aureus, and L. lactis; test: Fluorescence microscopy observation of FADA-labeled bacteria; type: cell-based; settings: 300 μM, 37° C., 6 h; FIG. 1
Procedure: (§3) • 1. Staphylococcus aureus (Deposit number: ATCC 29213), Escherichia coli (Deposit number: ATCC 10798), Lactococcus lactis (Deposit number: ATCC 19257), and Bacillus subtilis (Deposit number: ATCC 6633). The four bacterial strains are the dominant bacteria or the important indicator and pathogenic bacteria in raw milk. • 2. […] Labeling method. […] Fluorescence microscopy observation method. […] 10 μL of bacterial suspension was added onto a slide to prepare an observation sample, which was observed using a 100× oil lens and FITC fluorescence channel. Brightfield images and fluorescence field images were recorded separately. • 5. Flow cytometry. […] The sample not incubated with FADA was used as the negative control.

[6] = tested on: four species of bacteria (B. subtilis, E. coli, S. aureus, L. lactis); test: Labeling efficiency by flow cytometry; type: cell-based
Procedure: as §3, with “Optimization of labeling conditions.” for “The sample not incubated with FADA was used as the negative control.”

[7] = tested on: Cow-derived fresh Leukocytes; test: Specific labeling in mixed samples, fluorescence microscopy; type: cell-based; settings: 500 μM, 37° C., 6 h, mixed with S. aureus; FIG. 6
Procedure: (§4) • 1. Activation of bacterial strain. After Staphylococcus aureus was activated on a nutrient agar plate, a single colony was picked, inoculated to TSB medium (10 g/L peptone, 3 g/L beef extract powder, and 5 g/L sodium chloride), incubated at 37° C. for 6 h to the mid-logarithmic stage, and then centrifuged at 8000 rpm for 5 min to collect the bacterial cells. The collected bacterial cells were suspended in fresh TSB medium at a bacterial suspension concentration of approximately 10^7 cells/mL. • 2.

Saccharomyces cerevisiae = test: as above; type: cell-based; settings: 500 μM, 37° C., 6 h, mixed with S. aureus; FIG. 6
Procedure: as §4

Staphylococcus aureus [8] = test: as above; type: cell-based; settings: 500 μM, 37° C., 6 h, mixed with yeast or cow leukocytes; FIG. 6
Procedure: as §4

E. coli [9] = test: Fluorescent labeling in presence of bacterial cell division inhibitor (flow cytometry); type: cell-based, Escherichia coli; settings: 500 μM, 2 h, with bacterial cell division inhibitor, FIG. 8
From the text: (§5) • 1. Culture of bacterial strains. […] Fluorescent labeling with FADA. […] Fluorescent labeling with FADAA (Amino FADA).

L. lactis [10] = test: as above; type: cell-based, Lactococcus lactis; settings: 500 μM, 2 h, with bacterial cell division inhibitor, FIG. 8
From the text: as §5

Row | Molecule | Resistance to quinolone antibiotics (MIC), B. subtilis (B. subtilis) [µg/mL] | Resistance to quinolone antibiotics (MIC), E. coli (E. coli [1]) [µg/mL] | Resistance to quinolone antibiotics (MIC), S. aureus (S. aureus) [µg/mL] | Resistance to quinolone antibiotics (MIC), L. lactis (L. lactis [2]) [µg/mL] | Inhibition of cell division of the four species of bacteria [3] | bacterial viability after antibiotic treatment (Staphylococcus aureus [4]) [%] | Fluorescent labeling of bacterial cells under fluorescence microscope [5] | labeling efficiency ([6]; 300 μM, 37° C., 6 h, FIG. 2) [%] | labeling efficiency ([6]; 500 μM, 4 h, FIG. 3) | Fluorescent labeling of somatic cells (cow leukocytes) in mixed sample [7] | Fluorescent labeling of yeast in mixed sample (Saccharomyces cerevisiae) | Fluorescent labeling of S. aureus in mixed samples (Staphylococcus aureus [8]) | labeling effect (labeling efficiency) (E. coli [9]) [%] | labeling effect (labeling efficiency) (L. lactis [10]) [%]
1 | O=C(O)c1cn(C2CC2)c2cc(N3CCNCC3)c(F)cc2c1=O [Ciprofloxacin, ciprofloxacin] | 1 | 0.5 | 1 | 1 | efficient inhibition of cell division |  |  |  |  |  |  |  |  | 
2 | C[C@H]1COc2c(N3CCN(C)CC3)c(F)cc3c(=O)c(C(=O)O)cn1c23 [Levofloxacin, levofloxacin] | 2 | <0.25 | <0.25 | 0.5 |  |  |  |  |  |  |  |  |  | 
3 | COc1c(N2C[C@@H]3CCCN[C@@H]3C2)c(F)cc2c(=O)c(C(=O)O)cn(C3CC3)c12 [Moxifloxacin, moxifloxacin] | 8 | 1 | 4 | 2 |  | 88.1 |  |  |  |  |  |  |  | 
4 | CCn1cc(C(=O)O)c(=O)c2ccc(C)nc21 [Nalidixic acid, nalidixic acid] | 128 | 4 | 64 | >256 |  |  |  |  |  |  |  |  |  | 
5 | Carboxyfluorescein-labeled amino-D-alanine [FADA] |  |  |  |  |  |  | all cells in the field of view were found fluorescently labeled | > 98.5 | more than 98.5% | not labeled | not labeled | fluorescently labeled | 81.6 | 57.1
